Columns and labels:
Assay type in all cases: cell-based
[1] = test system: human Burkitt's lymphoma cell line Namalwa; assay: Caspase cascade activation in Namalwa cells; details: Burkitts lymphoma cell, 48 h incubation, read-out: caspase potency EC50 Namalwa
Experimental: (§1) Human breast cancer cell lines T-47D, human hepatocellular carcinoma cell line SNU398, human colon carcinoma cell line HCT116, human cancer cell line H11299, human Burkitt's lymphoma cell line Namalwa, human lymphoma cell line Raji, and human B cell lymphoblastoid cell line Ramos were grown according to media component mixtures designated by American Type Culture Collection+10% FCS (Invitrogen Corporation), in a 5% CO2-95% humidity incubator at 37° C. T-47D and H1299 cells were maintained at a cell density between 50 and 80% confluency at a cell density of 0.1 to 0.6×10^6 cells/mL. Cells were harvested at 600×g and resuspended at 0.65×10^6 cells/mL into appropriate media+10% FCS. An aliquot of 22.5 μL of cells was added to a well of a 384-well microtiter plate containing 2.5 μL of a 10% DMSO in RPMI-1640 media solution containing 0.16 to 100 μM of 6-(3,4-dimethoxyphenyl)-3-(2-methoxyphenyl)-[1,2,4]triazolo[3,4-b][1,3,4]thiadiazole or other test compound (0.016 to 10 μM final). An aliquot of 22.5 μL of cells was added to a well of a 384-well microtiter plate containing 2.5 μL of a 10% DMSO in RPMI-1640 media solution without test compound as the control sample. The samples were mixed by agitation and then incubated at 37° C. for 48 h in a 5% CO2-95% humidity incubator. After incubation, the samples were removed from the incubator and 25 μL of a solution containing 14 μM of N-(Ac-DEVD)-N′-ethoxycarbonyl-R110 (SEQ ID No.:1) fluorogenic substrate (Cytovia, Inc.; WO99/18856), 20% sucrose (Sigma), 20 mM DTT (Sigma), 200 mM NaCl (Sigma), 40 mM Na PIPES buffer pH 7.2 (Sigma), and 500 μg/mL lysolecithin (Calbiochem) was added. The samples were mixed by agitation and incubated at room temperature. Using a fluorescent plate reader (Model SPECTRAfluor Plus, Tecan), an initial reading (T=0) was made approximately 1-2 min after addition of the substrate solution, employing excitation at 485 nm and emission at 530 nm, to determine the background fluorescence of the control sample. After the 3 h incubation, the samples were read for fluorescence as above (T=3 h).
(§2) The Relative Fluorescence Unit values (RFU) were used to calculate the sample readings as follows: RFU(T=3h)−Control RFU(T=0)=Net RFU(T=3h)
(§3) The activity of caspase cascade activation was determined by the ratio of the net RFU value for 6-(3,4-dimethoxyphenyl)-3-(2-methoxyphenyl)-[1,2,4]triazolo[3,4-b][1,3,4]thiadiazole (Example I) or other test compound to that of control samples. The EC50 (nM) was determined by a sigmoidal dose-response calculation (Prism 3.0, GraphPad Software Inc.).

[2] = test system: human lymphoma cell line Raji; assay: Caspase cascade activation in Raji cells; details: RAJ1 cells, 48 h incubation, read-out: caspase potency EC50 RAJ1
Experimental: as §1, §2, §3

[3] = test system: Human breast cancer cell lines T-47D; assay: Caspase cascade activation (Ac-DEVD-R110 fluorogenic substrate) in T-47D cells; details: T47D cells, 48 h incubation, read-out: caspase potency EC50 T47D
Experimental: as §1, §2, §3

[4] = test system: human hepatocellular carcinoma cell line SNU398; assay: Caspase cascade activation in SNU398 cells; details: SNU-398, 48 h incubation, read-out: caspase potency EC50 SNU398
Experimental: as §1, §2, §3

[5] = test system: human colon carcinoma cell line HCT116; assay: Caspase cascade activation in HCT116 cells; details: HCT-116, 48 h incubation, read-out: caspase potency EC50 HCT116
Experimental: as §1, §2, §3

[6] = test system: human B cell lymphoblastoid cell line Ramos; assay: Caspase cascade activation in Ramos cells; details: 48 h incubation, read-out: caspase potency EC50 RAMOS
Experimental: as §1, §2, §3

SMILES | EC50 [1] [µM] | EC50 [2] [µM] | EC50 [3] [µM] | EC50 [4] [µM] | EC50 [5] [µM] | EC50 [6] [µM]
COc1cc(-c2nnc3sc(-c4ccc(C)c([N+](=O)[O-])c4)nn23)cc(OC)c1OC [Entry 1, 6-(4-Methyl-3-nitrophenyl)-3-(3,4,5-trimethoxyphenyl)-[1,2,4]triazolo[3,4-b][1,3,4]thiadiazole] | > 10 |  | > 10 | > 10 | > 10 | 
COc1cc(-c2nnc3sc(-c4ccc(C)c(N)c4)nn23)cc(OC)c1OC [Entry 2, 6-(3-Amino-4-methylphenyl)-3-(3,4,5-trimethoxyphenyl)-[1,2,4]triazolo[3,4-b][1,3,4]thiadiazole] | 0.626 |  | 1.62 | 0.645 | 1.31 | 
COc1ccccc1-c1nnc2sc(-c3ccc(C)c([N+](=O)[O-])c3)nn12 [Entry 4, 3-(2-Methoxyphenyl)-6-(4-methyl-3-nitrophenyl)-[1,2,4]triazolo[3,4-b][1,3,4]thiadiazole] | > 10 |  | > 10 | > 10 | > 10 | 
COc1ccccc1-c1nnc2sc(-c3ccc(OC)c([N+](=O)[O-])c3)nn12 [Entry 6, 6-(4-Methoxy-3-nitrophenyl)-3-(2-methoxyphenyl)-[1,2,4]triazolo[3,4-b][1,3,4]thiadiazole] | > 10 |  | > 10 | > 10 | > 10 | 
COc1cc(-c2nnc3sc(-c4ccc(N5CCOCC5)cc4)nn23)cc(OC)c1OC [Entry 8, 6-(4-Morpholinophenyl)-3-(3,4,5-trimethoxyphenyl)-[1,2,4]triazolo[3,4-b][1,3,4]thiadiazole] | > 10 |  | > 10 | > 10 | > 10 | 
COc1ccccc1-c1nnc2sc(-c3ccc4[nH]ncc4c3)nn12 [Entry 12, 6-(1H-indazol-5-yl)-3-(2-methoxyphenyl)-[1,2,4]triazolo[3,4-b][1,3,4]thiadiazole] | 0.649 |  | 1.18 | 0.571 | 1.17 | 
COc1ccccc1-c1nnc2sc(-c3ccc4cc[nH]c4c3)nn12 [Entry 13, 6-(1H-indol-6-yl)-3-(2-methoxyphenyl)-[1,2,4]triazolo[3,4-b][1,3,4]thiadiazole] | 0.155 |  | 0.967 | 0.146 | 0.663 | 
COc1ccc(-c2nnc3sc(-c4ccc(N(C)C)cc4)nn23)cc1OC [Entry C1, 3-(3,4-Dimethoxyphenyl)-6-(4-dimethylaminophenyl)-[1,2,4]triazolo[3,4-b][1,3,4]thiadiazole] | 5.3 | > 10 |  |  |  | 5.18
CCN(CC)c1ccc(-c2nn3c(-c4cccc(C)c4)nnc3s2)cc1 [G, 6-(4-Diethylaminophenyl)-3-m-tolyl-[1,2,4]triazolo[3,4-b][1,3,4]thiadiazole] | 2.35 | 2.93 |  |  |  | 2.24
CCN(CC)c1ccc(-c2nn3c(-c4ccncc4)nnc3s2)cc1 [J, 6-(4-Diethylaminophenyl)-3-(pyridin-4-yl)-[1,2,4]triazolo[3,4-b][1,3,4]thiadiazole] | 0.598 | 1.06 |  |  |  | 0.524
COc1cc(-c2nnc3sc(-c4ccncc4)nn23)cc(OC)c1OC [X, 6-(Pyridin-4-yl)-3-(3,4,5-trimethoxyphenyl)-[1,2,4]triazolo[3,4-b][1,3,4]thiadiazole] | > 10 | > 10 | 3.61 | 2.01 | 2.36 | > 10

More lines, now with the values ahead:

EC50 [1] [µM] | EC50 [2] [µM] | EC50 [3] [µM] | EC50 [4] [µM] | EC50 [5] [µM] | EC50 [6] [µM] | SMILES
5.63 | 5.4 | > 10 | > 10 | > 10 | 5.3 | CCc1nn(C)c(-c2nnc3sc(-c4ccc(OC)cc4)nn23)c1Cl [B, 3-(4-Chloro-3-ethyl-1-methyl-1H-pyrazol-5-yl)-6-(4-methoxyphenyl)-[1,2,4]triazolo[3,4-b][1,3,4]thiadiazole]
2.48 | 5.07 |  |  |  | 1.1 | CCN(CC)c1ccc(-c2nn3c(-c4cccnc4)nnc3s2)cc1 [D, 6-(4-Diethylaminophenyl)-3-(pyridin-3-yl)-[1,2,4]triazolo[3,4-b][1,3,4]thiadiazole]
> 10 |  | > 10 | > 10 | > 10 |  | COc1cc(-c2nnc3sc(-c4ccc5nc[nH]c5c4)nn23)cc(OC)c1OC [Entry 3, 6-(1H-Benzo[d]imidazol-6-yl)-3-(3,4,5-trimethoxyphenyl)-[1,2,4]triazolo[3,4-b][1,3,4]thiadiazole]
2.38 |  | 1.27 | 2.31 | 2.64 |  | COc1ccccc1-c1nnc2sc(-c3ccc(N4CCOCC4)cc3)nn12 [Entry 9, 3-(2-Methoxyphenyl)-6-(4-morpholinophenyl)-[1,2,4]triazolo[3,4-b][1,3,4]thiadiazole]
> 10 |  | > 10 | > 10 | > 10 |  | COc1ccccc1-c1nnc2sc(-c3ccc([N+](=O)[O-])c(OC)c3)nn12 [Entry 10, 6-(3-Methoxy-4-nitrophenyl)-3-(2-methoxyphenyl)-[1,2,4]triazolo[3,4-b][1,3,4]thiadiazole]
> 10 |  | > 10 | > 10 | > 10 |  | COc1ccccc1-c1nnc2sc(-c3cccnc3)nn12 [Entry 11, 3-(2-Methoxyphenyl)-6-(pyridin-3-yl)-[1,2,4]triazolo[3,4-b][1,3,4]thiadiazole]
2.66 | 4.94 |  |  |  | 3.92 | CN(C)c1ccc(-c2nn3c(-c4ccncc4)nnc3s2)cc1 [Entry H1, 6-(4-Dimethylaminophenyl)-3-(pyridine-4-yl)-[1,2,4]triazolo[3,4-b][1,3,4]thiadiazole]
5.53 | > 10 |  |  |  | 5.33 | CN(C)c1ccc(-c2nnc3sc(-c4cccc(N(C)C)c4)nn23)cc1 [Entry J1, 3-(4-Dimethylaminophenyl)-6-(3-dimethylaminophenyl)-[1,2,4]triazolo[3,4-b][1,3,4]thiadiazole]
1.31 | 2.69 | 2.43 |  | 2.76 | 1.74 | COc1ccc(-c2nn3c(-c4n[nH]c5c4CCC5)nnc3s2)cc1OC [Entry L1, 6-(3,4-Dimethoxyphenyl)-3-(1,4,5,6-tetrahydrocyclopenta[c]pyrazol-3-yl)-[1,2,4]triazolo[3,4-b][1,3,4]thiadiazole]
> 10 | > 10 | 5.04 | > 10 | > 10 | > 10 | COc1cc(-c2nnc3sc(-c4ccccc4)nn23)cc(OC)c1OC [W, 6-Phenyl-3-(3,4,5-trimethoxyphenyl)-[1,2,4]triazolo[3,4-b][1,3,4]thiadiazole]
> 10 | > 10 | 5.44 | > 10 | > 10 | > 10 | COc1cc(-c2nnc3sc(-c4cccs4)nn23)cc(OC)c1OC [Y, 6-(Thiophen-2-yl)-3-(3,4,5-trimethoxyphenyl)-[1,2,4]triazolo[3,4-b][1,3,4]thiadiazole]
0.963 | 1.56 |  |  |  | 1.02 | COc1ccc(-c2nn3c(-c4ccccc4Cl)nnc3s2)cc1 [Z, 3-(2-Chlorophenyl)-6-(4-methoxyphenyl)-[1,2,4]triazolo[3,4-b][1,3,4]thiadiazole]

Source: patent US7732468B2, “3-aryl-6-aryl-[ 1,2,4]triazolo[3,4-b][1,3,4]thiadiazoles and related compounds as activators of caspases and inducers of apoptosis and the use thereof” (Cytovia, Inc., priority 2006, dated 2010)
